Experimental data reported in article PMC6364417, “Kinase inhibitor library screening identifies synergistic drug combinations effective in sensitive and resistant melanoma cells” (Journal of Experimental & Clinical Cancer Research : CR, 2019).

How the values were obtained:
Test in all cases: Kinase inhibitor library screening, PrestoBlue cell viability, 1 or 10 μM, 72 h
[1] = tested on: A375-XP cells (Vemurafenib-resistant); details: A375 XP; for cell viability (kinase inhibitor library screening) / cell viability, A375 XP, 1μΜ / cell viability, A375 XP, 10μΜ: in %
[2] = tested on: 501Mel-GP cells (Dabrafenib-resistant); details: 501Mel GP, in %
IGR37 cells (parental) = details: IGR37 Parental, in %
501Mel cells (parental) = details: 501Mel Parental, in %
Summary of the method: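 PrestoBlue viability readout after 72 h exposure to each inhibitor at 1 or 10 μM, reported relative to untreated cells as % viability. Lines tested: sensitive parental plus derivatives resistant to Vemurafenib (XP) or Dabrafenib (GP), each run at least in duplicate.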

[3] = tested on: IGR37-GP cells (Dabrafenib-resistant); details: IGR37 GP
[4] = tested on: IGR37-XP cells (Vemurafenib-resistant); details: IGR37 XP
[5] = tested on: A375-GP cells (Dabrafenib-resistant); details: A375 GP; for cell viability (kinase inhibitor library screening) / cell viability, A375 GP, 1μΜ / cell viability, A375 GP, 10μΜ: in %
[6] = tested on: 501Mel-XP cells (Vemurafenib-resistant); details: 501Mel XP, in %
A375 cells (parental) = details: A375 Parental; for cell viability (kinase inhibitor library screening) / cell viability, A375 Parental, 1μΜ / cell viability, A375 Parental, 10μΜ: in %

Q: Which “cell viability (kinase inhibitor library screening)” value ([1]; 1μΜ) does the source give for `CC1(C)CNc2cc(NC(=O)c3cccnc3NCc3ccncc3)ccc21` [Motesanib Diphosphate] here?
A: 109.8

Q: And the “cell viability (kinase inhibitor library screening)” value ([1]; 10μΜ)?
A: 97.0

Q: What about the “cell viability (kinase inhibitor library screening)” value ([2]; 1μΜ) of the same molecule?
A: 98.5

Q: And the “cell viability (kinase inhibitor library screening)” value ([2]; 10μΜ)?
A: 82.7

Q: And the “cell viability (kinase inhibitor library screening)” value (IGR37 cells (parental); 1μΜ)?
A: 97.7

Q: And the “cell viability (kinase inhibitor library screening)” value (IGR37 cells (parental); 10μΜ)?
A: 97.0

Q: And the “cell viability (kinase inhibitor library screening)” value (501Mel cells (parental); 1μΜ)?
A: 97.3

Q: And the “cell viability (kinase inhibitor library screening)” value (501Mel cells (parental); 10μΜ)?
A: 94.6

Q: And the “cell viability (kinase inhibitor library screening)” value ([3]; 1μΜ, in %)?
A: 85.5

Q: And the “cell viability (kinase inhibitor library screening)” value ([3]; 10μΜ, in %)?
A: 85.5

Q: And the “cell viability (kinase inhibitor library screening)” value ([4]; 10μΜ, in %)?
A: 78.2

Q: And the “cell viability (kinase inhibitor library screening)” value ([5]; 1μΜ)?
A: 99.4

Q: What about the “cell viability (kinase inhibitor library screening)” value ([5]; 10μΜ) of the same molecule?
A: 89.9

Q: And the “cell viability (kinase inhibitor library screening)” value ([6]; 1μΜ)?
A: 91.0

Q: What about the “cell viability (kinase inhibitor library screening)” value ([6]; 10μΜ) of the same molecule?
A: 71.5

Q: And the “cell viability (kinase inhibitor library screening)” value (A375 cells (parental); 1μΜ)?
A: 105.3

Q: What about the “cell viability (kinase inhibitor library screening)” value (A375 cells (parental); 10μΜ) of the same molecule?
A: 89.5

Q: Which “cell viability, A375 XP, 1μΜ” value ([1]; 1μΜ, 72 h) does the source give for `O=c1cc(N2CCOCC2)oc2c(-c3cccc4c3sc3ccccc34)cccc12` [NU7441(KU-57788)] here?
A: 98.6

Q: What about the “cell viability, A375 XP, 10μΜ” value ([1]; 10μΜ, 72 h) of the same molecule?
A: 55.7

Q: And the “cell viability, 501Mel GP, 1μΜ” value ([2]; 1μΜ, 72 h)?
A: 93.7

Q: What about the “cell viability, 501Mel GP, 10μΜ” value ([2]; 10μΜ, 72 h) of the same molecule?
A: 32.9

Q: And the “cell viability, IGR37 Parental, 1μΜ” value (IGR37 cells (parental); 1μΜ, 72 h)?
A: 96.8

Q: And the “cell viability, IGR37 Parental, 10μΜ” value (IGR37 cells (parental); 10μΜ, 72 h)?
A: 98.9

Q: What about the “cell viability, 501Mel Parental, 10μΜ” value (501Mel cells (parental); 10μΜ, 72 h) of the same molecule?
A: 61.0

Q: And the cell viability, IGR37 GP, 10μΜ ([3]; 10μΜ, 72 h)?
A: 49.3%

Q: What about the “cell viability, IGR37 GP, 1μΜ” value ([3]; 1μΜ, 72 h, in %) of the same molecule?
A: 92.2

Q: What about the cell viability, IGR37 XP, 10μΜ ([4]; 10μΜ, 72 h) of the same molecule?
A: 20.1%

Q: And the “cell viability, IGR37 XP, 1μΜ” value ([4]; 1μΜ, 72 h, in %)?
A: 99.7

Q: And the “cell viability, A375 GP, 1μΜ” value ([5]; 1μΜ, 72 h)?
A: 92.7

Q: What about the “cell viability, A375 GP, 10μΜ” value ([5]; 10μΜ, 72 h) of the same molecule?
A: 47.4

Q: What about the “cell viability, 501Mel XP, 10μΜ” value ([6]; 10μΜ, 72 h) of the same molecule?
A: 10.9

Q: What about the “cell viability, A375 Parental, 1μΜ” value (A375 cells (parental); 1μΜ, 72 h) of the same molecule?
A: 98.8

Q: What about the “cell viability, A375 Parental, 10μΜ” value (A375 cells (parental); 10μΜ, 72 h) of the same molecule?
A: 52.7

Q: What does the source list for `Nc1ncnc2c1c(-c1cccc(OCc3ccccc3)c1)cn2C1CC(CN2CCCC2)C1` (stereo not drawn) [NVP-ADW742]?
A: cell viability, A375 XP, 1μΜ ([1]; 1μΜ, 72 h): 90.5; cell viability, A375 XP, 10μΜ ([1]; 10μΜ, 72 h): 13.9; cell viability, 501Mel GP, 1μΜ ([2]; 1μΜ, 72 h): 91.7; cell viability, 501Mel GP, 10μΜ ([2]; 10μΜ, 72 h): -0.2; cell viability, IGR37 Parental, 1μΜ (IGR37 cells (parental); 1μΜ, 72 h): 110.2; cell viability, IGR37 Parental, 10μΜ (IGR37 cells (parental); 10μΜ, 72 h): 0.537; cell viability, 501Mel Parental, 1μΜ (501Mel cells (parental); 1μΜ, 72 h): 80.8; cell viability, 501Mel Parental, 10μΜ (501Mel cells (parental); 10μΜ, 72 h): 0.529; cell viability, IGR37 GP, 10μΜ ([3]; 10μΜ, 72 h): 1.6%; cell viability, IGR37 GP, 1μΜ ([3]; 1μΜ, 72 h, in %): 83.7; cell viability, IGR37 XP, 10μΜ ([4]; 10μΜ, 72 h): 1.2%; cell viability, IGR37 XP, 1μΜ ([4]; 1μΜ, 72 h, in %): 78.5; cell viability, A375 GP, 1μΜ ([5]; 1μΜ, 72 h): 57.9; cell viability, A375 GP, 10μΜ ([5]; 10μΜ, 72 h): 20.2; cell viability, 501Mel XP, 1μΜ ([6]; 1μΜ, 72 h): 82.0; cell viability, 501Mel XP, 10μΜ ([6]; 10μΜ, 72 h): -0.346; cell viability, A375 Parental, 1μΜ (A375 cells (parental); 1μΜ, 72 h): 89.6; cell viability, A375 Parental, 10μΜ (A375 cells (parental); 10μΜ, 72 h): 25.2

Q: How did the “Cell viability in kinase inhibitor library screening, A375 XP, 1μΜ” value ([1]; 1μΜ, 72 h) turn out when `COc1ccc(-c2ccc3ncc4c(c3c2)n(-c2ccc(N3CCNCC3)c(C(F)(F)F)c2)c(=O)n4C)cn1` [NVP-BGT226] was run?
A: 7.2

Q: What about the “Cell viability in kinase inhibitor library screening, A375 XP, 10μΜ” value ([1]; 10μΜ, 72 h) of the same molecule?
A: 1.0

Q: What about the “Cell viability in kinase inhibitor library screening, 501Mel GP, 1μΜ” value ([2]; 1μΜ, 72 h) of the same molecule?
A: 0.9

Q: And the “Cell viability in kinase inhibitor library screening, 501Mel GP, 10μΜ” value ([2]; 10μΜ, 72 h)?
A: 0.145

Q: And the “Cell viability in kinase inhibitor library screening, IGR37 Parental, 1μΜ” value (IGR37 cells (parental); 1μΜ, 72 h)?
A: 2.3

Q: What about the “Cell viability in kinase inhibitor library screening, IGR37 Parental, 10μΜ” value (IGR37 cells (parental); 10μΜ, 72 h) of the same molecule?
A: -1.8

Q: What about the “Cell viability in kinase inhibitor library screening, 501Mel Parental, 1μΜ” value (501Mel cells (parental); 1μΜ, 72 h) of the same molecule?
A: 1.2

Q: What about the “Cell viability in kinase inhibitor library screening, 501Mel Parental, 10μΜ” value (501Mel cells (parental); 10μΜ, 72 h) of the same molecule?
A: 1.1

Q: What about the Cell viability in kinase inhibitor library screening, IGR37 GP, 10μΜ ([3]; 10μΜ, 72 h) of the same molecule?
A: 2.6%

Q: What about the “Cell viability in kinase inhibitor library screening, IGR37 GP, 1μΜ” value ([3]; 1μΜ, 72 h, in %) of the same molecule?
A: 2.9

Q: And the Cell viability in kinase inhibitor library screening, IGR37 XP, 10μΜ ([4]; 10μΜ, 72 h)?
A: 1.4%

Q: What about the “Cell viability in kinase inhibitor library screening, IGR37 XP, 1μΜ” value ([4]; 1μΜ, 72 h, in %) of the same molecule?
A: 2.5

Q: What about the “Cell viability in kinase inhibitor library screening, A375 GP, 1μΜ” value ([5]; 1μΜ, 72 h) of the same molecule?
A: 7.1

Q: What about the “Cell viability in kinase inhibitor library screening, A375 GP, 10μΜ” value ([5]; 10μΜ, 72 h) of the same molecule?
A: 0.9

Q: And the “Cell viability in kinase inhibitor library screening, 501Mel XP, 1μΜ” value ([6]; 1μΜ, 72 h)?
A: 1.5

Q: And the “Cell viability in kinase inhibitor library screening, 501Mel XP, 10μΜ” value ([6]; 10μΜ, 72 h)?
A: 1.1

Q: What about the “Cell viability in kinase inhibitor library screening, A375 Parental, 10μΜ” value (A375 cells (parental); 10μΜ, 72 h) of the same molecule?
A: 0.952

Q: What about the “Cell viability in kinase inhibitor library screening, A375 Parental, 1μΜ” value (A375 cells (parental); 1μΜ, 72 h) of the same molecule?
A: 9.1
